Experimental data as given in PubChem BioAssay AID256 (DTP/NCI, 2004).
Several values for one entry are separate records, joined by “and”; a condition that tells them apart may be missing. Identical values can stand only once. Toxic doses and inconclusive results are not listed.

System: CD2F1 mice, L1210 leukemia ip, survival T/C
Test: NCI In Vivo Anticancer Drug Screen. Data for tumor model L1210 Leukemia (intraperitoneal) in CD2F1 (CDF1) mice
Settings: higher = longer survival
How it was run: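 Compound-dosed mice with transplantable tumor versus matched vehicle controls; endpoint ratio T/C reported.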

With `COc1cccc2c1C(=O)c1c(O)c3c(c(O)c1C2=O)C[C@@](O)(/C(C)=N/NC(=O)c1ccccc1)C[C@@H]3OC1CC(N)C(O)C(C)O1` (some centres undefined) the T/C (endpoint: mean survival time, dose: 0.5 mg/kg/injection, schedule: Q04DX003 (ip), vehicle: water) was 91 % of control, the T/C (endpoint: mean survival time, dose: 0.65 mg/kg/injection, schedule: Q01DX009 (ip), vehicle: saline) was 117 % of control and the T/C (endpoint: mean survival time, dose: 1.0 mg/kg/injection, schedule: Q01DX009 (ip), vehicle: water) was 107 % of control. For the same compound, the T/C (endpoint: mean survival time, dose: 1.0 mg/kg/injection, schedule: Q04DX003 (ip), vehicle: water) was 91 % of control, the T/C (endpoint: mean survival time, dose: 1.08 mg/kg/injection, schedule: Q01DX009 (ip), vehicle: saline) was 120 % of control and the T/C (endpoint: mean survival time, dose: 2.0 mg/kg/injection, schedule: Q01DX009 (ip), vehicle: water) was 113 % of control. The T/C (endpoint: mean survival time, dose: 2.0 mg/kg/injection, schedule: Q04DX003 (ip), vehicle: water) was 96 % of control, the T/C (endpoint: mean survival time, dose: 3.0 mg/kg/injection, schedule: Q01DX009 (ip), vehicle: saline) was 150 % of control and the T/C (endpoint: mean survival time, dose: 3.0 mg/kg/injection, schedule: Q04DX003 (ip), vehicle: saline) was 160 % of control. The T/C (endpoint: mean survival time, dose: 4.0 mg/kg/injection, schedule: Q01DX009 (ip), vehicle: water) was 120 % of control, the T/C (endpoint: mean survival time, dose: 4.0 mg/kg/injection, schedule: Q04DX003 (ip), vehicle: water) was 105 % of control and the T/C (endpoint: mean survival time, dose: 5.0 mg/kg/injection, schedule: Q04DX003 (ip), vehicle: saline) was 163 % of control. For the same compound, the T/C (endpoint: mean survival time, dose: 8.0 mg/kg/injection, schedule: Q01DX009 (ip), vehicle: saline) was 110 % of control, the T/C (endpoint: mean survival time, dose: 8.0 mg/kg/injection, schedule: Q04DX003 (ip), vehicle: water) was 124 % of control and the T/C (endpoint: mean survival time, dose: 22.2 mg/kg/injection, schedule: Q04DX003 (ip), vehicle: saline) was 103 % of control. For the same compound, the T/C (endpoint: median survival time, dose: 0.13 mg/kg/injection, schedule: Q03HX008 (ip), vehicle: water) was 106 % of control, the T/C (endpoint: median survival time, dose: 0.13 mg/kg/injection, schedule: Q03HX016 (ip), vehicle: water) was 97 % of control and the T/C (endpoint: median survival time, dose: 0.13 mg/kg/injection, schedule: Q03HX024 (ip), vehicle: water) was 106 % of control. For the same compound, the T/C (endpoint: median survival time, dose: 0.25 mg/kg/injection, schedule: Q03HX008 (ip), vehicle: water) was 107 % of control, the T/C (endpoint: median survival time, dose: 0.25 mg/kg/injection, schedule: Q03HX016 (ip), vehicle: water) was 104 % of control and the T/C (endpoint: median survival time, dose: 0.25 mg/kg/injection, schedule: Q03HX024 (ip), vehicle: water) was 112 % of control. For the same compound, the T/C (endpoint: median survival time, dose: 0.5 mg/kg/injection, schedule: Q01DX009 (ip), vehicle: water) was 105 % of control, the T/C (endpoint: median survival time, dose: 0.5 mg/kg/injection, schedule: Q01DX009 (sc), vehicle: water) was 101 % of control and the T/C (endpoint: median survival time, dose: 0.5 mg/kg/injection, schedule: Q03HX008 (ip), vehicle: water) was 114 % of control. For the same compound, the T/C (endpoint: median survival time, dose: 0.5 mg/kg/injection, schedule: Q03HX016 (ip), vehicle: water) was 105 % of control, the T/C (endpoint: median survival time, dose: 0.5 mg/kg/injection, schedule: Q03HX024 (ip), vehicle: water) was 115 % of control and the T/C (endpoint: median survival time, dose: 0.5 mg/kg/injection, schedule: Q04DX003 (ip), vehicle: water) was 100 % of control. The T/C (endpoint: median survival time, dose: 1.0 mg/kg/injection, schedule: Q01DX001 (ip), vehicle: water) was 98 % of control, the T/C (endpoint: median survival time, dose: 1.0 mg/kg/injection, schedule: Q01DX001 (sc), vehicle: water) was 96 % of control and the T/C (endpoint: median survival time, dose: 1.0 mg/kg/injection, schedule: Q01DX009 (ip), vehicle: water) was 106 % of control. The T/C (endpoint: median survival time, dose: 1.0 mg/kg/injection, schedule: Q01DX009 (sc), vehicle: water) was 97 % of control, the T/C (endpoint: median survival time, dose: 1.0 mg/kg/injection, schedule: Q03HX008 (ip), vehicle: water) was 118 % of control and the T/C (endpoint: median survival time, dose: 1.0 mg/kg/injection, schedule: Q03HX016 (ip), vehicle: water) was 109 % of control. The T/C (endpoint: median survival time, dose: 1.0 mg/kg/injection, schedule: Q04DX003 (ip), vehicle: water) was 116 % of control and 111 % of control, the T/C (endpoint: median survival time, dose: 1.0 mg/kg/injection, schedule: Q08DX002 (ip), vehicle: water) was 107 % of control and the T/C (endpoint: median survival time, dose: 2.0 mg/kg/injection, schedule: Q01DX001 (ip), vehicle: water) was 105 % of control. For the same compound, the T/C (endpoint: median survival time, dose: 2.0 mg/kg/injection, schedule: Q01DX001 (sc), vehicle: water) was 102 % of control, the T/C (endpoint: median survival time, dose: 2.0 mg/kg/injection, schedule: Q01DX009 (ip), vehicle: water) was 116 % of control and the T/C (endpoint: median survival time, dose: 2.0 mg/kg/injection, schedule: Q01DX009 (sc), vehicle: water) was 97 % of control. The T/C (endpoint: median survival time, dose: 2.0 mg/kg/injection, schedule: Q04DX003 (ip), vehicle: water) was 103 % of control and 112 % of control, the T/C (endpoint: median survival time, dose: 2.0 mg/kg/injection, schedule: Q08DX002 (ip), vehicle: water) was 107 % of control and the T/C (endpoint: median survival time, dose: 4.0 mg/kg/injection, schedule: Q01DX001 (ip), vehicle: water) was 113 % of control. The T/C (endpoint: median survival time, dose: 4.0 mg/kg/injection, schedule: Q01DX001 (sc), vehicle: water) was 98 % of control, the T/C (endpoint: median survival time, dose: 4.0 mg/kg/injection, schedule: Q01DX009 (oral), vehicle: water) was 98 % of control and the T/C (endpoint: median survival time, dose: 4.0 mg/kg/injection, schedule: Q01DX009 (sc), vehicle: water) was 97 % of control. For the same compound, the T/C (endpoint: median survival time, dose: 4.0 mg/kg/injection, schedule: Q03HX016 (ip), vehicle: water) was 124 % of control, the T/C (endpoint: median survival time, dose: 4.0 mg/kg/injection, schedule: Q03HX024 (ip), vehicle: water) was 104 % of control and the T/C (endpoint: median survival time, dose: 4.0 mg/kg/injection, schedule: Q04DX003 (ip), vehicle: water) was 124 % of control. The T/C (endpoint: median survival time, dose: 4.0 mg/kg/injection, schedule: Q08DX002 (ip), vehicle: water) was 113 % of control, the T/C (endpoint: median survival time, dose: 8.0 mg/kg/injection, schedule: Q01DX001 (ip), vehicle: water) was 117 % of control and the T/C (endpoint: median survival time, dose: 8.0 mg/kg/injection, schedule: Q01DX001 (sc), vehicle: water) was 98 % of control. The T/C (endpoint: median survival time, dose: 8.0 mg/kg/injection, schedule: Q01DX009 (oral), vehicle: water) was 95 % of control, the T/C (endpoint: median survival time, dose: 8.0 mg/kg/injection, schedule: Q01DX009 (sc), vehicle: water) was 103 % of control and the T/C (endpoint: median survival time, dose: 8.0 mg/kg/injection, schedule: Q08DX002 (ip), vehicle: water) was 124 % of control. The T/C (endpoint: median survival time, dose: 16.0 mg/kg/injection, schedule: Q01DX001 (oral), vehicle: water) was 97 % of control, the T/C (endpoint: median survival time, dose: 16.0 mg/kg/injection, schedule: Q01DX001 (sc), vehicle: water) was 97 % of control and the T/C (endpoint: median survival time, dose: 16.0 mg/kg/injection, schedule: Q01DX009 (oral), vehicle: water) was 97 % of control. For the same compound, the T/C (endpoint: median survival time, dose: 16.0 mg/kg/injection, schedule: Q01DX009 (sc), vehicle: water) was 108 % of control, the T/C (endpoint: median survival time, dose: 16.0 mg/kg/injection, schedule: Q04DX003 (ip), vehicle: water) was 124 % of control and the T/C (endpoint: median survival time, dose: 32.0 mg/kg/injection, schedule: Q01DX001 (ip), vehicle: water) was 155 % of control. For the same compound, the T/C (endpoint: median survival time, dose: 32.0 mg/kg/injection, schedule: Q01DX001 (oral), vehicle: water) was 96 % of control, the T/C (endpoint: median survival time, dose: 32.0 mg/kg/injection, schedule: Q01DX001 (sc), vehicle: water) was 108 % of control and the T/C (endpoint: median survival time, dose: 32.0 mg/kg/injection, schedule: Q04DX003 (ip), vehicle: water) was 106 % of control. The T/C (endpoint: median survival time, dose: 64.0 mg/kg/injection, schedule: Q01DX001 (oral), vehicle: water) was 103 % of control, the T/C (endpoint: median survival time, dose: 128.0 mg/kg/injection, schedule: Q01DX001 (oral), vehicle: water) was 102 % of control and the T/C (endpoint: median survival time, dose: 256.0 mg/kg/injection, schedule: Q01DX001 (oral), vehicle: water) was 102 % of control.
With `CCOC(=O)C(C)S(=O)(=O)O` (centres undefined) the T/C (endpoint: mean survival time, dose: 100.0 mg/kg/injection, schedule: Q04DX002 (ip), vehicle: saline) was 91 % of control, the T/C (endpoint: mean survival time, dose: 200.0 mg/kg/injection, schedule: Q04DX002 (ip), vehicle: saline) was 100 % of control and the T/C (endpoint: mean survival time, dose: 400.0 mg/kg/injection, schedule: Q04DX002 (ip), vehicle: saline) was 100 % of control.
In the case of `CCCCCCCCCCCCCCCCCC[N+](CC)(CC)CC`, the T/C (endpoint: mean survival time, dose: 0.75 mg/kg/injection, schedule: Q01DX001 (ip), vehicle: Klucel (hydroxypropylcellulose) (HPC)) is reported as 91 % of control, the T/C (endpoint: mean survival time, dose: 1.5 mg/kg/injection, schedule: Q01DX001 (ip), vehicle: Klucel (hydroxypropylcellulose) (HPC)) is reported as 108 % of control and the T/C (endpoint: mean survival time, dose: 3.0 mg/kg/injection, schedule: Q01DX001 (ip), vehicle: Klucel (hydroxypropylcellulose) (HPC)) is reported as 100 % of control.
In the case of `O=c1[nH]c(=S)c(SCc2ccccc2)nn1C1OC(COP(=O)(O)O)C(O)C1O` (centres undefined), the T/C (endpoint: median survival time, dose: 5.63 mg/kg/injection, schedule: Q01DX005 (ip), vehicle: water) is reported as 98 % of control, the T/C (endpoint: median survival time, dose: 11.25 mg/kg/injection, schedule: Q01DX005 (ip), vehicle: water) is reported as 98 % of control and the T/C (endpoint: median survival time, dose: 22.5 mg/kg/injection, schedule: Q01DX005 (ip), vehicle: water) is reported as 102 % of control. For the same compound, the T/C (endpoint: median survival time, dose: 45.0 mg/kg/injection, schedule: Q01DX005 (ip), vehicle: water) was 105 % of control and the T/C (endpoint: median survival time, dose: 90.0 mg/kg/injection, schedule: Q01DX005 (ip), vehicle: water) was 103 % of control.
In the case of `[Na+]`, the T/C (endpoint: median survival time, dose: 25.0 mg/kg/injection, schedule: Q01DX009 (ip), vehicle: water) is reported as 105 % of control, the T/C (endpoint: median survival time, dose: 50.0 mg/kg/injection, schedule: Q01DX009 (ip), vehicle: water) is reported as 102 % of control and the T/C (endpoint: median survival time, dose: 100.0 mg/kg/injection, schedule: Q01DX009 (ip), vehicle: water) is reported as 93 % of control. The T/C (endpoint: median survival time, dose: 200.0 mg/kg/injection, schedule: Q01DX009 (ip), vehicle: water) was 100 % of control and the T/C (endpoint: median survival time, dose: 400.0 mg/kg/injection, schedule: Q01DX009 (ip), vehicle: water) was 105 % of control.
With `C1CC[N-]CC1.C1CC[N-]CC1.C1CC[N-]CC1.C1CC[N-]CC1.[Cl][Rh][Cl]` the T/C (endpoint: mean survival time, dose: 6.25 mg/kg/injection, schedule: Q04DX003 (ip), vehicle: saline) was 98 % of control and the T/C (endpoint: mean survival time, dose: 50.0 mg/kg/injection, schedule: Q01DX009 (ip), vehicle: saline) was 90 % of control.
